≈ marks a conversion by molar mass, not a printed value. Where two headings read alike, the source gives them in different places.
Experiments:
Hand1-ES cells = test: Hand1-ES cell luciferase reporter test during myocardial differentiation; details: for Hand1-ES ID50 (50% inhibitory concentration for differentiation): concentration at which 50% of the luciferase activity is inhibited, day 6, medium for myocardial differentiation
Method: Hand1-ES cell line was cultured while maintaining an undifferentiated state in DMEM medium containing 15% heat inactivated fetal bovine serum supplemented with LIF containing 100 μg/mL G418. The undifferentiated Hand1-ES cells were dispersed using 0.25% trypsin/1 mM EDTA, and thereafter, the cells were suspended in DMEM medium containing 15% heat inactivated fetal bovine serum. Residual trypsin was removed by centrifugation and suction of the supernatant, and the cells were suspended in DMEM medium containing 15% heat inactivated fetal bovine serum not containing LIF (hereinafter, medium for myocardial differentiation). Thereafter, the number of cells was counted using a small amount of the cell solution, and a cell suspension (medium for myocardial differentiation) was prepared so as to have a cell number of 15,000 cells/mL. The prepared cell suspensions were added with only solvent such as PBS(−) or DMSO as a solvent control or added with a test chemical prepared by diluting with solvent into several levels, and thereafter, each cell suspension was seeded in a nonadherent U-bottom 96-well plate in a volume of 50 μL, and the culture was performed for 3 days. On day 3, 50 μL of the medium for myocardial differentiation supplemented with the test chemical again prepared was added, and the suspension culture was continued for 3 days. On day 6, 100 μL of a luciferase luminescent reagent, Steady-Glo (Promega), was added to each well and shaken for 30 minutes, and thereafter, the total amount was transferred to a 96-well white plate, and the luciferase activity was measured with a TopCount NXT luminescence detection counter (Packard Japan). The obtained activity values were averaged and tallied for the solvent control group and every concentration of the test chemical.

[1] = known classification of the test chemicals used; cited from earlier work
[2] = tested on: balb/c 3T3 cells cloneA31; test: 3T3 cell proliferation test (CellTiter-Glo); assay type: cell-based; details: Mus musculus, BALB/c3T3, 144 h, read-out: 3T3 IC50 (50% inhibitory concentration for cell growth)
Method: In addition, using balb/c 3T3 cells cloneA31 obtained from ATCC (hereinafter, 3T3 cells), the effects of each test chemical on cell proliferation were evaluated by the following method. The 3T3 cells cultured in DMEM medium containing 10% heat inactivated fetal bovine serum, 2 mM glutamine, penicillin and streptomycin (medium for 3T3) in an incubator at 37° C. and 5% CO2 were dispersed using 0.25% trypsin/1 mM EDTA, and thereafter, the cells were suspended in the medium for 3T3. Residual trypsin was removed by centrifugation and suction of the supernatant, and the cells were suspended in the medium for 3T3. Thereafter, the number of cells was counted using a small amount of the cell solution, and a cell suspension was prepared so as to have a cell number of 10,000 cells/mL. The prepared cell suspensions were added with only solvent such as PBS(−) or DMSO as a solvent control or added with a test chemical prepared by diluting with solvent into several levels. Thereafter, each cell suspension was seeded in a white 96-well plate for cell culture in a volume of 50 μL, and the culture was performed for 3 days. On day 3, 50 μL of the medium for 3T3 supplemented with the test chemical again prepared was added, and the culture was continued for 3 days. On day 6, the supernatant of each well was removed by suction, then, each well was supplemented with the solution in a CellTiter-Glo™ Luminescent Cell Viability Assay kit (Promega) and shaken for 30 minutes, and thereafter, the activity was measured with a TopCount NXT luminescence detection counter. […] The activity values obtained from each test of the Hand1-ES cells and the 3T3 cells were averaged and tallied for the solvent control group and every concentration of the test chemical, and thereafter, a relative value of each concentration was calculated using the average value of the solvent control group as 100%.

[3] = day 6, CellTiter-Glo luminescence

Row | Compound | Embryotoxicity assessment from comparing Hand1-ES ID50 with 3T3 IC50 (Hand1-ES cells) | Hand1-ES ID50 (50% inhibitory concentration for differentiation) (Hand1-ES cells) [µg/mL] | in vivo embryotoxicity [1] | IC50 [2, 3] [µg/mL] | Embryotoxicity assessment from comparing Hand1-ES ID50 with 3T3 IC50 (Hand1-ES cells; ID50<IC50 = embryotoxic, ID50 larger than IC50 = not shown) | IC50 [2] [µg/mL]
1 | O=c1[nH]c(=O)n([C@H]2C[C@H](O)[C@@H](CO)O2)cc1Br [5-bromo-2′-deoxyuridine] | has embryotoxicity | 0.12 | positive | 0.8 (≈ 2.61 µM) |  | 
2 | O=c1[nH]cc(F)c(=O)[nH]1 [5-fluorouracil] | has embryotoxicity | 0.02 | positive | 0.16 (≈ 1.23 µM) |  | 
3 | C=CC(N)=O [acrylamide] |  | 85.3 | negative | 54 (≈ 760 µM) | embryotoxicity is not shown | 
4 | O=C1O[C@H]([C@@H](O)CO)C(O)=C1O [ascorbic acid] | embryotoxicity is not shown | 28.3 |  |  |  | 2 (≈ 11.4 µM)
5 | C[C@@H]1C[C@H]2[C@@H]3CCC4=CC(=O)C=C[C@]4(C)[C@@]3(F)[C@@H](O)C[C@]2(C)[C@@]1(O)C(=O)CO [dexamethasone] | has embryotoxicity | 15.6 | positive | 36.7 (≈ 93.5 µM) |  | 
6 | NC(=O)NO [hydroxyurea] | has embryotoxicity | 2.5 |  | 4.7 (≈ 61.8 µM) |  | 
